Test results from article PMC12643063, “Mechanistic basis for inhibition of the extended‐spectrum β‐lactamase GES‐1 by enmetazobactam and tazobactam” (Febs Letters, 2025).
pIC50: −log10 of the molar value.

Columns and labels:
[1] = target: T1, GES-1 (Guiana extended-spectrum β-lactamase 1) (Klebsiella pneumoniae, UniProt Q9KJY7); assay: ([…] Å), mass spectrometry; IC50 by nitrocefin hydrolysis, […] min pre-incubation; format: biochemical
T1 construct: pOPIN-F, expressed in SoluBL21 (DE3) E. coli

[2] = target: T1, GES-1 (Guiana extended-spectrum β-lactamase 1); assay: ([…] Å; […] Da aldehyde fragment on Ser70), mass spectrometry; IC50 by nitrocefin hydrolysis, […] min pre-incubation; format: biochemical

T1 sequence (Q9KJY7 18-287): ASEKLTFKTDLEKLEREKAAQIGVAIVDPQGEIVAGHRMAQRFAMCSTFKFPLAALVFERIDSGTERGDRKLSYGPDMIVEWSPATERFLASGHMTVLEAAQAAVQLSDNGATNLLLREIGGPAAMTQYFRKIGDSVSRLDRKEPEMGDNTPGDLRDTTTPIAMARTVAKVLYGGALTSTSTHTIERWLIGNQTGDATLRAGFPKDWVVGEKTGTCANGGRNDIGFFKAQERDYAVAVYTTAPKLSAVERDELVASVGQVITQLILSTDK

| Compound | pIC50 [1] | pIC50 [2] |
| --- | --- | --- |
| C[n+]1ccn(C[C@@]2(C)[C@H](C(=O)O)N3C(=O)C[C@H]3S2(=O)=O)n1 [enmetazobactam] | 6.97 | – |
| C[C@]1(Cn2ccnn2)[C@H](C(=O)O)N2C(=O)C[C@H]2S1(=O)=O [tazobactam] | – | 6.35 |
